Experimental data published in US9675584B2, “Substituted indoles for the inhibition of PASK” (BioEnergenix, LLC, priority 2011, dated 2017).

Molecular target: T1, hPASK (Homo sapiens, UniProt Q96RG2)
T1 construct: IC50 Kinase Domain; purchased Invitrogen
Assay: Biochemical assay for hPASK activity (PAS kinase FRET assay; IC50 kinase domain)
Settings: PASK kinase domain
Description: Biochemical Assay for hPASK Activity
One assay for purified hPASK activity utilizes the Kinase-Glo Luminescent Kinase Assay (Promega), which quantifies the amount of ATP remaining in solution following kinase reaction. The assay is carried out in a 96-well plate format and is performed by adding a volume of Kinase-Glo Reagent (Promega, catalog #V3771) equal to the volume of solution in the well of a completed kinase reaction. Kinase-Glo reagent contains Luciferase and its substrate. After addition to a kinase reaction it allows to measure luminescence. The amount of ATP left in solution at the time of Kinase-Glo Plus addition is directly proportional to the luminescence that is measured in each well, and inversely correlated with kinase activity.
Purified hPASK from insect cells (0.02 μg) is added to a 50 μL reaction mix containing 40 mM HEPES (pH 7.0), 100 mM KCl, 5 mM MgCl2, 1 mM DTT and 1 μg of MBP protein. […] The luminescence is measured as soon as 10 minutes after Kinase-Glo reagent is added. […]
The aim of the FRET assay is to determine the inhibition potential of test compounds on targeted kinase. This assay platform provides a homogenous screening method for measuring kinase activity by quantitating the amount of phospho-substrate in solution following a kinase reaction. […]

T1 sequence (Q96RG2 999-1251 limits assumed): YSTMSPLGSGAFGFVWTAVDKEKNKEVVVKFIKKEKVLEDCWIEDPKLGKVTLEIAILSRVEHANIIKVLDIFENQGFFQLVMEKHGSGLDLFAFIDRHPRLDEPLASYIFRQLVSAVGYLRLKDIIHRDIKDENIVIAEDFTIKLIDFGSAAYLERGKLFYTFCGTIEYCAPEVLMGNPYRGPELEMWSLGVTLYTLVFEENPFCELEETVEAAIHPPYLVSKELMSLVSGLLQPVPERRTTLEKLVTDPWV

IC50 [µM] | SMILES
≤ 10 | O=C(O)c1ccc2c(c1)cc(-c1ccc(F)cc1)n2-c1ccc(F)cc1 [Example 1, 1,2-Bis(4-fluorophenyl)-1H-indole-5-carboxylic acid]
≤ 10 | O=C(O)/C=C/c1cnc(-c2ccc(F)cc2)c(-c2ccc(F)cc2)n1 [Example 2, (E)-3-(5,6-bis(4-fluorophenyl)pyrazin-2-yl)acrylic acid]
